Like-named read-outs stand apart in the source and are kept apart here.
System: microbial inhibition test (Premi®Test)
Protocol: Urine samples were examined using microbial inhibition test ampoules produced according to the methods described in EP 0005891 with the nutrients present in the agar. Said test is also known as Premi®Test (commercially available from DSM, Delft, The Netherlands).
Samples were examined as described in Example 1. CaCl2.2H2O was dissolved in water or chicken meat fluid, in concentrations of 0, 0.0078, 0.0156, 0.0312, 0.0625, 0.125, 0.25, 0.5 and 1 M. The samples were added to the test ampoules. After a pre-incubation for 20 minutes at room temperature the sample was removed and the test was incubated in a water bath at 64±1° C. following the instructions of the manufacturer. The results were obtained after 165 minutes for chicken meat fluid and 185 minutes in case of water, by reading the change of color from purple to yellow.

[Ca+2].[Cl-].[Cl-] [CaCl2, Calcium Chloride]
Color observed in microbial inhibition test (CaCl2 0.0078 M in chicken meat fluid, read after 165 minutes): Yellow | Color observed in microbial inhibition test (CaCl2 0.0078 M in water, read after 185 minutes): Yellow | Color observed in microbial inhibition test (CaCl2 0.0156 M in chicken meat fluid, read after 165 minutes): Yellow | Color observed in microbial inhibition test (CaCl2 0.0156 M in water, read after 185 minutes): Yellow | Color observed in microbial inhibition test (CaCl2 0.0312 M in chicken meat fluid, read after 165 minutes): Yellow | Color observed in microbial inhibition test (CaCl2 0.0312 M in water, read after 185 minutes): Yellow | Color observed in microbial inhibition test (CaCl2 0.0625 M in chicken meat fluid, read after 165 minutes): Yellow | Color observed in microbial inhibition test (CaCl2 0.0625 M in water, read after 185 minutes): Yellow | Color observed in microbial inhibition test (CaCl2 0.125 M in chicken meat fluid, read after 165 minutes): Yellow | Color observed in microbial inhibition test (CaCl2 0.125 M in water, read after 185 minutes): Yellow | Color observed in microbial inhibition test (CaCl2 0.25 M in chicken meat fluid, read after 165 minutes): Yellow | Color observed in microbial inhibition test (CaCl2 0.25 M in water, read after 185 minutes): Yellow | Color observed in microbial inhibition test (CaCl2 0.5 M in chicken meat fluid, read after 165 minutes): Yellow | Color observed in microbial inhibition test (CaCl2 0.5 M in water, read after 185 minutes): Purple | Color observed in microbial inhibition test (CaCl2 1 M in chicken meat fluid, read after 165 minutes): Yellow | Color observed in microbial inhibition test (CaCl2 1 M in water, read after 185 minutes): Purple | Concentration of CaCl2 with no inhibition (in chicken meat fluid): up to 1 M | Concentration of CaCl2 that does not influence the test results (in water): up to 0.25 M
